# Key:
# Format in all cases: cell-based
# [1] = test system: Diaporthe medusae; experiment: microbe, parasite or virus in culture
# [2] = test system: B. cinerea; experiment: In vitro inhibition, pathogens from tropical plants; conditions: Botrytis cinerea
# Procedure: (§1) 5 wt % formulation of the active compound of Formula (I) was prepared into a solution (300 mg/L). To a sterilized Erlenmeyer flask, 2 mL of the solution and 18 mL of PDA culture medium (50° C.) were added. The mixture was shaken uniformly and dumped into two dishes whose diameter was 9 cm to yield two toxic PDA culture mediums having a concentration of 30 mg/L. Various cultured pathogens were punched at the edge of colony by a puncher having a diameter of 5 mm respectively, and the obtained pieces were transferred to the center of the toxic PDA culture medium by an inoculating needle and cultured in an incubator at 25° C. Repeat the above steps. According to the growth status of CK colony, the colony diameter of pathogens was measured by crossing method with a caliper and thereby a corrected inhibition percentage was calculated.
# (§2) For each colony, diameter was measured twice by crossing method and the average was practicable. The colony growth inhibition rate was calculated as follows: Colony growth inhibition rate %=(diameter of CK colony−diameter of target colony)×100/diameter of CK colony
# (§3) Following the above method, as targets 17 pathogens originated from tropical plants were tested. The pathogens were Rhizopus sp., Aspergillus, Colletotrichum gloeosporioides Penz, Banana Fusarium wilt, Colletouichum coccodes, Hughas, B. heveas, Cucumber mosaic virusstrain banana, Banana Sigatoka Leaf Spot Disease, Colletotrichum gloeosporioides, Colletotrichum musae (Berk & Curt) Arx, Botryodiplodia theobromae, Cladosporium cucumerinum Ellis et Arthur, Periconia hevenae, Colletotrichum gloeosporioides, B. cinerea, Diplodia natalensis, and Curvularia.
# [3] = test system: Rhizopus sp.; experiment: as above
# Procedure: as §1, §2, §3
# [4] = test system: Curvularia; experiment: as above
# Procedure: as §1, §2, §3
# [5] = test system: Colletotrichum gloeosporioides Penz; experiment: as above
# Procedure: as §1, §2, §3
# [6] = test system: Banana Sigatoka Leaf Spot Disease; experiment: as above
# Procedure: as §1, §2, §3
# [7] = test system: Periconia hevenae; experiment: as above
# Procedure: as §1, §2, §3
# [8] = test system: Aspergillus; experiment: as above
# Procedure: as §1, §2, §3
# [9] = test system: Diplodia natalensis; experiment: as above
# Procedure: as §1, §2, §3
# [10] = test system: Banana Fusarium wilt; experiment: as above
# Procedure: as §1, §2, §3
# [11] = test system: Colletouichum coccodes. Hughas; experiment: as above
# Procedure: as §1, §2, §3
# [12] = test system: B. heveas; experiment: as above
# Procedure: as §1, §2, §3
# [13] = test system: Colletotrichum musae (Berk & Curt) Arx; experiment: as above
# Procedure: as §1, §2, §3
# [14] = test system: Colletotrichum gloeosporioides (first entry, r49); experiment: as above
# Procedure: as §1, §2, §3
# [15] = test system: Colletotrichum gloeosporioides (second entry, r74); experiment: as above
# Procedure: as §1, §2, §3
# [16] = test system: Botryodiplodia theobromae; experiment: as above; conditions: Lasiodiplodia theobromae
# Procedure: as §1, §2, §3
# [17] = test system: Cladosporium cucumerinum Ellis et Arthur; experiment: as above
# Procedure: as §1, §2, §3
# [18] = test system: Cucumber mosaic virusstrain banana; experiment: as above
# Procedure: as §1, §2, §3
# [19] = 0.1 mg/L, read-out: Inhibition rate (%)
# [20] = 0.5 mg/L, read-out: Inhibition rate (%)
# [21] = 1 mg/L, read-out: Inhibition rate (%)
# [22] = 5 mg/L, read-out: Inhibition rate (%)
# [23] = 10 mg/L, read-out: Inhibition rate (%)
# [24] = 15 mg/L, read-out: Inhibition rate (%)
# [25] = 20 mg/L, read-out: Inhibition rate (%)
# [26] = 25 mg/L, read-out: Inhibition rate (%)
# [27] = 50 mg/L, read-out: Inhibition rate (%)
smiles,measurement,setting,value
"CO/C=C(/C(=O)OC)c1ccccc1CSc1nc2cc(OC)ccc2s1 [Compound of Formula (I), (E)-methyl 3-methoxy-2-(2-((5-methoxy-benzothiazol-2-ylthio)methyl)phenyl)acrylate]",in vitro effect,[1],particularly effective
same,inhibition at 0.3 µg/mL,"[1]; Diaporthe, 0.3 mg/L, read-out: Inhibition rate (%)",55.3%
same,inhibition at 3 µg/mL,"[1]; Diaporthe, 3 mg/L, read-out: Inhibition rate (%)",80.1%
same,inhibition at 30 µg/mL,"[1]; Diaporthe, 30 mg/L, read-out: Inhibition rate (%)",87.2%
same,EC50,[2],1 µg/mL
same,inhibition at 0.1 µg/mL,[2]; [19],12.8%
same,inhibition at 0.5 µg/mL,[2]; [20],35.1%
same,inhibition at 1 µg/mL,[2]; [21],54.5%
same,inhibition at 5 µg/mL,[2]; [22],73.3%
same,inhibition at 10 µg/mL,[2]; [23],88.1%
same,EC50,[3],4.18 µg/mL
same,inhibition at 1 µg/mL,[3]; [21],18.4%
same,inhibition at 5 µg/mL,[3]; [22],53.1%
same,inhibition at 10 µg/mL,[3]; [23],69.3%
same,inhibition at 15 µg/mL,[3]; [24],83.6%
same,inhibition at 20 µg/mL,[3]; [25],88.5%
same,EC50,[4],0.505 µg/mL
same,inhibition at 0.1 µg/mL,[4]; [19],28.8%
same,inhibition at 1 µg/mL,[4]; [21],63.5%
same,inhibition at 5 µg/mL,[4]; [22],75.9%
same,inhibition at 10 µg/mL,[4]; [23],76.6%
same,inhibition at 15 µg/mL,[4]; [24],80.6%
same,EC50,[5],4.63 µg/mL
same,inhibition at 0.1 µg/mL,[5]; [19],16.7%
same,inhibition at 1 µg/mL,[5]; [21],31.1%
same,inhibition at 5 µg/mL,[5]; [22],50.2%
same,inhibition at 10 µg/mL,[5]; [23],54.9%
same,inhibition at 25 µg/mL,[5]; [26],69.3%
same,inhibition at 50 µg/mL,[5]; [27],80.9%
same,EC50,[6],1.5 µg/mL
same,inhibition at 0.1 µg/mL,[6]; [19],17.2%
same,inhibition at 1 µg/mL,[6]; [21],43.5%
same,inhibition at 5 µg/mL,[6]; [22],63.7%
same,inhibition at 10 µg/mL,[6]; [23],77.9%
same,inhibition at 20 µg/mL,[6]; [25],85.8%
same,EC50,[7],0.378 µg/mL
same,inhibition at 0.1 µg/mL,[7]; [19],33.2%
same,inhibition at 1 µg/mL,[7]; [21],66.4%
same,inhibition at 5 µg/mL,[7]; [22],74.2%
same,inhibition at 10 µg/mL,[7]; [23],77.6%
same,inhibition at 15 µg/mL,[7]; [24],81.7%
same,EC50,[8],5.03 µg/mL
same,inhibition at 0.1 µg/mL,[8]; [19],10.6%
same,inhibition at 1 µg/mL,[8]; [21],27.4%
same,inhibition at 5 µg/mL,[8]; [22],47.8%
same,inhibition at 10 µg/mL,[8]; [23],58.4%
same,inhibition at 25 µg/mL,[8]; [26],71.4%
same,inhibition at 50 µg/mL,[8]; [27],86.1%
same,EC50,[9],1.7 µg/mL
same,inhibition at 0.1 µg/mL,[9]; [19],20.7%
same,inhibition at 1 µg/mL,[9]; [21],40.2%
same,inhibition at 5 µg/mL,[9]; [22],60.7%
same,inhibition at 10 µg/mL,[9]; [23],73.7%
same,inhibition at 20 µg/mL,[9]; [25],82.3%
same,EC50,[10],9.22 µg/mL
same,inhibition at 1 µg/mL,[10]; [21],13.5%
same,inhibition at 5 µg/mL,[10]; [22],30.2%
same,inhibition at 10 µg/mL,[10]; [23],60.5%
same,inhibition at 25 µg/mL,[10]; [26],67.6%
same,inhibition at 50 µg/mL,[10]; [27],80.4%
same,EC50,[11],7.13 µg/mL
same,inhibition at 0.1 µg/mL,[11]; [19],10.1%
same,inhibition at 2 µg/mL,"[11]; 2 mg/L, read-out: Inhibition rate (%)",22.3%
same,inhibition at 5 µg/mL,[11]; [22],42.1%
same,inhibition at 15 µg/mL,[11]; [24],61.3%
same,inhibition at 25 µg/mL,[11]; [26],83.5%
same,EC50,[12],1.99 µg/mL
same,inhibition at 0.1 µg/mL,[12]; [19],9.09%
same,inhibition at 1 µg/mL,[12]; [21],43.9%
same,inhibition at 5 µg/mL,[12]; [22],61.4%
same,inhibition at 10 µg/mL,[12]; [23],70.5%
same,inhibition at 15 µg/mL,[12]; [24],81.4%
same,EC50,[13],1.66 µg/mL
same,inhibition at 0.1 µg/mL,[13]; [19],19.1%
same,inhibition at 1 µg/mL,[13]; [21],37.2%
same,inhibition at 5 µg/mL,[13]; [22],64.5%
same,inhibition at 10 µg/mL,[13]; [23],78.7%
same,inhibition at 20 µg/mL,[13]; [25],85.8%
same,EC50,[14],1.97 µg/mL
same,inhibition at 0.1 µg/mL,[14]; [19],18.2%
same,inhibition at 1 µg/mL,[14]; [21],42.4%
same,inhibition at 5 µg/mL,[14]; [22],55.9%
same,inhibition at 10 µg/mL,[14]; [23],69.4%
same,inhibition at 20 µg/mL,[14]; [25],83.2%
same,EC50,[15],6.92 µg/mL
same,inhibition at 0.1 µg/mL,[15]; [19],7.12%
same,inhibition at 1 µg/mL,[15]; [21],19.3%
same,inhibition at 5 µg/mL,[15]; [22],33.8%
same,inhibition at 10 µg/mL,[15]; [23],55.2%
same,inhibition at 20 µg/mL,[15]; [25],87.2%
same,EC50,[16],3.7 µg/mL
same,inhibition at 0.5 µg/mL,[16]; [20],14.6%
same,inhibition at 1 µg/mL,[16]; [21],31.7%
same,inhibition at 5 µg/mL,[16]; [22],51.6%
same,inhibition at 10 µg/mL,[16]; [23],65.8%
same,inhibition at 20 µg/mL,[16]; [25],84%
same,EC50,[17],4.84 µg/mL
same,inhibition at 1 µg/mL,[17]; [21],6.77%
same,inhibition at 2.5 µg/mL,"[17]; 2.5 mg/L, read-out: Inhibition rate (%)",28.3%
same,inhibition at 5 µg/mL,[17]; [22],55%
same,inhibition at 10 µg/mL,[17]; [23],72.1%
same,inhibition at 20 µg/mL,[17]; [25],84.9%
same,EC50,[18],1.92 µg/mL
same,inhibition at 0.1 µg/mL,[18]; [19],9.84%
same,inhibition at 1 µg/mL,[18]; [21],40.2%
same,inhibition at 5 µg/mL,[18]; [22],62.3%
same,inhibition at 10 µg/mL,[18]; [23],76.6%
same,inhibition at 15 µg/mL,[18]; [24],84.8%

# From US9422254B2, “Methoxyacrylate-based fungicide and methods for preparing and using the same” (priority 2008, dated 2016)
